Test system: Hep3B cells (hepatocellular carcinoma cell line)
Experiment: In vitro MTS cell viability assay (NCI-60 methodology), Hep3B
Type: cell-based
Details: Homo sapiens, 48 h, Table 1, MTS, 2 days drug incubation, 50% reduction vs time zero, read-out: Hep3B LC50
In short: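 Hep3B cells given five 2-fold dilutions of compound for 2 days, with viability by MTS measured at time zero and at end. LC50 is the concentration giving a 50% fall in viable cells relative to the start of treatment, per NCI-60 formula.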

Structure (SMILES) | LC50 [nM]
Cn1ncc2c(NC(=O)c3ccc([N+](=O)[O-])s3)nc(-c3ccc(OC(C)(C)C)cc3)nc21 [Compound 1-7, N-(6-(4-(tert-butoxy)phenyl)-1-methyl-1H-pyrazolo[3,4-d]pyrimidin-4-yl)-5-nitrothiophene-2-carboxamide] | 1510
O=C(Nc1nc(-c2ccc(OC(F)(F)F)cc2)nc2c1cnn2CCN1CCOCC1)c1ccc([N+](=O)[O-])s1 [Compound 1-30, N-(1-(2-morpholinoethyl)-6-(4-(trifluoromethoxy)phenyl)-1H-pyrazolo[3,4-d]pyrimidin-4-yl)-5-nitrothiophene-2-carboxamide] | 1700
CN(C)CCn1ncc2c(NC(=O)c3ccc([N+](=O)[O-])s3)nc(-c3ccc(OC(F)(F)F)cc3)nc21 [Compound 1-31, N-(1-(2-(dimethylamino)ethyl)-6-(4-(trifluoromethoxy)phenyl)-1H-pyrazolo[3,4-d]pyrimidin-4-yl)-5-nitrothiophene-2-carboxamide] | 1860

Same assay, conditions: Homo sapiens, 48 h, Table 3, MTS, 2 days drug incubation, 50% reduction vs time zero, read-out: Hep3B LC50

Structure (SMILES) | LC50 [nM]
Cn1cc2nc(-c3ccc(C(C)(C)C)cc3)nc(NC(=O)c3ccc([N+](=O)[O-])s3)c2c1 [Compound 3-10, N-(2-(4-(tert-butyl)phenyl)4-methyl-6H-pyrrolo[3,4,d]pyrimidin-4-yl)-5-nitrothiophene-2-carboxamide] | 10000

Same assay, conditions: Homo sapiens, 48 h, Table 5, MTS, 2 days drug incubation, 50% reduction vs time zero, read-out: Hep3B LC50

Structure (SMILES) | LC50 [nM]
O=C(Nc1nc(N2CCOCC2)nc2c1cnn2-c1ccccc1)c1ccc([N+](=O)[O-])s1 [Compound 5-7, N-(6-morpholino-1-phenyl-1H-pyrazolo[3,4-d]pyrimidin-4-yl)-5-nitrothiophene-2-carboxamide] | 1460
C=CC(=O)N1CCC(c2nc(NC(=O)c3ccc([N+](=O)[O-])s3)c3cnn(-c4ccccc4)c3n2)CC1 [Compound 5-2, N-(6-(1-acryloylpiperidin-4-yl)-1-phenyl-1H-pyrazolo[3,4-d]pyrimidin-4-yl)-5-nitrothiophene-2-carboxamide] | 2470
Cc1noc(C)c1-c1nc(NC(=O)c2ccc([N+](=O)[O-])s2)c2cnn(-c3ccccc3)c2n1 [Compound 5-21, N-(6-(3,5-dimethylisoxazol-4-yl)-1-phenyl-1H-pyrazolo[3,4-d]pyrimidin-4-yl)-5-nitrothiophene-2-carboxamide] | 760
O=C(Nc1nc(-c2ccc(Cl)c(F)c2)nc2c1cnn2-c1ccccc1)c1ccc([N+](=O)[O-])s1 [Compound 5-46, N-(6-(4-chloro-3-fluorophenyl)-1-phenyl-1H-pyrazolo[3,4-d]pyrimidin-4-yl)-5-nitrothiophene-2-carboxamide] | 240
O=C(Nc1nc(-c2ccccc2F)nc2c1cnn2-c1ccccc1)c1ccc([N+](=O)[O-])s1 [Compound 5-25, N-(6-(2-fluorophenyl)-1-phenyl-1H-pyrazolo[3,4-d]pyrimidin-4-yl)-5-nitrothiophene-2-carboxamide] | 460
O=C(Nc1nc(N2CCCC2)nc2c1cnn2-c1ccccc1)c1ccc([N+](=O)[O-])s1 [Compound 5-3, 5-nitro-N-(1-phenyl-6-(pyrrolidin-1-yl)-1H-pyrazolo[3,4-d]pyrimidin-4-yl)thiophene-2-carboxamide] | 4910
O=C(Nc1nc(-c2ccc(Cl)c(Cl)c2)nc2c1cnn2-c1ccccc1)c1ccc([N+](=O)[O-])s1 [Compound 5-48, N-(6-(3,4-dichlorophenyl)-1-phenyl-1H-pyrazolo[3,4,d]pyrimidin-4-yl)-5-nitrothiophene-2-carboxamide] | 410

Same assay, conditions: Homo sapiens, 48 h, Table 6, MTS, 2 days drug incubation, 50% reduction vs time zero, read-out: Hep3B LC50

Structure (SMILES) | LC50 [nM]
COc1ccc(-n2ncc3c(NC(=O)c4ccc([N+](=O)[O-])s4)nc(-c4ccc(Cl)cc4)nc32)cc1 [Compound 6-20, N-(6-(4-chlorophenyl)-1-(4-methoxyphenyl)-1H-pyrazolo[3,4-d]pyrimidin-4-yl)-5-nitrothiophene-2-carboxamide] | 320
Cc1ccc(-n2ncc3c(NC(=O)c4ccc([N+](=O)[O-])s4)nc(N4CCC[C@H]4CO)nc32)cc1 [Compound 6-3, (S)—N-(6-(2-(hydroxymethyl)pyrrolidin-1-yl)-1-(p-tolyl)-1H-pyrazolo[3,4-d]pyrimidin-4-yl)-5-nitrothiophene-2-carboxamide] | 870
O=C(Nc1nc(-c2ccccc2F)nc2c1cnn2-c1ccc(F)cc1)c1ccc([N+](=O)[O-])s1 [Compound 6-113, N-(6-(2-fluorophenyl)-1-(4-fluorophenyl)-1H-pyrazolo[3,4-d]pyrimidin-4-yl)-5-nitrothiophene-2-carboxamide] | 400
Cc1ccccc1-n1ncc2c(NC(=O)c3ccc([N+](=O)[O-])s3)nc(N3CCC[C@H]3CO)nc21 [Compound 6-1, (S)—N-(6-(2-(hydroxymethyl)pyrrolidin-1-yl)-1-(o-tolyl)-1H-pyrazolo[3,4-d]pyrimidin-4-yl)-5-nitrothiophene-2-carboxamide] | > 3000
O=C(Nc1nc(-c2ccsc2)nc2c1cnn2-c1cccc(Cl)c1)c1ccc([N+](=O)[O-])s1 [Compound 6-33, N-(1-(3-chlorophenyl)-6-(thiophen-3-yl)-1H-pyrazolo[3,4-d]pyrimidin-4-yl)-5-nitrothiophene-2-carboxamide] | 290
COc1ccc(-n2ncc3c(NC(=O)c4ccc([N+](=O)[O-])s4)nc(-c4ccc(C)nc4)nc32)cc1 [Compound 6-17, N-(1-(4-methoxyphenyl)-6-(6-methylpyridin-3-yl)-1H-pyrazolo[3,4,d]pyrimidin-4-yl)-5-nitrothiophene-2-carboxamide] | 190

Same assay, conditions: Homo sapiens, 48 h, Table 7, MTS, 2 days drug incubation, 50% reduction vs time zero, read-out: Hep3B LC50

Structure (SMILES) | LC50 [nM]
O=C(Nc1nc(-c2ccc(Cl)cc2)nc2c1cnn2-c1ccc(F)cc1F)c1ccc([N+](=O)[O-])s1 [Compound 7-14] | 580
COc1ccc(-c2nc(NC(=O)c3ccc([N+](=O)[O-])s3)c3cnn(Cc4cccc(F)c4)c3n2)cn1 [Compound 7-18] | > 1250
O=C(Nc1nc(N2CCC[C@H]2CO)nc2c1cnn2-c1ccc(Cl)c(Cl)c1)c1ccc([N+](=O)[O-])s1 [Compound 7-11, (S)—N-(1-(3,4-dichlorophenyl)-6-(2-(hydroxymethyl)pyrrolidin-1-yl)-1H-pyrazolo[3,4-d]pyrimidin-4-yl)-5-nitrothiophene-2-carboxamide] | 510
O=C(Nc1nc(-c2ccc(F)cc2F)nc2c1cnn2-c1ccc(C(F)(F)F)cn1)c1ccc([N+](=O)[O-])s1 [Compound 7-6] | 150

Same assay, conditions: Homo sapiens, 48 h, Table 9, MTS, 2 days drug incubation, 50% reduction vs time zero, read-out: Hep3B LC50

Structure (SMILES) | LC50 [nM]
CC(C)(C)C(=O)N1CCC(n2ncc3c(NC(=O)c4ccc([N+](=O)[O-])s4)nc(-c4ccc(F)nc4)nc32)CC1 [Compound 9-8, N-(6-(6-fluoropyridin-3-yl)-1-(1-pivaloylpiperidin-4-yl)-1H-pyrazolo[3,4,d]pyrimidin-4-yl)-5-nitrothiophene-2-carboxamide] | 1900

Same assay, conditions: Homo sapiens, 48 h, Table 10, MTS, 2 days drug incubation, 50% reduction vs time zero, read-out: Hep3B LC50

Structure (SMILES) | LC50 [nM]
CCOCCOCCOc1ccc(-c2nc(NC(=O)c3ccc([N+](=O)[O-])s3)c3cnn(C4CCCCC4)c3n2)cn1 [Compound 10-53, N-(1-cyclohexyl-6-(6-(2-(2-ethoxyethoxy)ethoxy)pyridin-3-yl)-1H-pyrazolo[3,4-d]pyrimidin-4-yl)-5-nitrothiophene-2-carboxamide] | 1230
CCOC(=O)c1ccc(-c2nc(NC(=O)c3ccc([N+](=O)[O-])s3)c3cnn(C4CCCCC4)c3n2)cc1 [Compound 10-33, ethyl 4-(1-cyclohexyl-4-(5-nitrothiophene-2-carboxamido)-1H-pyrazolo[3,4-d]pyrimidin-6-yl)benzoate] | 540
CC1(C)CCC(n2ncc3c(NC(=O)c4ccc([N+](=O)[O-])s4)nc(-c4ccc(Cl)nc4)nc32)CC1 [Compound 10-64, N-(6-(6-chloropyridin-3-yl)-1-(4,4-dimethylcyclohexyl)-1H-pyrazolo[3,4-d]pyrimidin-4-yl)-5-nitrothiophene-2-carboxamide] | 570
O=C(Nc1nc(-c2ccc(Cl)cc2F)nc2c1cnn2C1CCCCC1)c1ccc([N+](=O)[O-])s1 [Compound 10-45, N-(6-(4-chloro-2-fluorophenyl)-1-cyclohexyl-1H-pyrazolo[3,4-d]pyrimidin-4-yl)-5-nitrothiophene-2-carboxamide] | 870
O=C(Nc1nc(-c2ccc(Cl)cc2)nc2c1cnn2C1CCC(F)(F)CC1)c1ccc([N+](=O)[O-])s1 [Compound 10-56, N-(6-(4-chlorophenyl)-1-(4,4-difluorocyclohexyl)-1H-pyrazolo[3,4,d]pyrimidin-4-yl)-5-nitrothiophene-2-carboxamide] | 770
O=C(Nc1nc(-c2cccc(F)c2)nc2c1cnn2C1CCCCC1)c1ccc([N+](=O)[O-])s1 [Compound 10-12, N-(1-cyclohexyl-6-(3-fluorophenyl)-1H-pyrazolo[3,4-d]pyrimidin-4-yl)-5-nitrothiophene-2-carboxamide] | 950
O=C(Nc1nc(-c2ccc(C(F)(F)F)cc2)nc2c1cnn2C1CCCCC1)c1ccc([N+](=O)[O-])s1 [Compound 10-24, N-(1-cyclohexyl-6-(4-(trifluoromethyl)phenyl)-1H-pyrazolo[3,4-d]pyrimidin-4-yl)-5-nitrothiophene-2-carboxamide] | 640
O=C(Nc1nc(N2CCC[C@H]2CO)nc2c1cnn2C1CCCCC1)c1ccc([N+](=O)[O-])s1 [Compound 10-3, (S)—N-(1-cyclohexyl-6-(2-(hydroxymethyl)pyrrolidin-1-yl)-1H-pyrazolo[3,4-d]pyrimidin-4-yl)-5-nitrothiophene-2-carboxamide] | > 5000
O=C(Nc1nc(-c2ccc(Cl)cc2Cl)nc2c1cnn2C1CCCCC1)c1ccc([N+](=O)[O-])s1 [Compound 10-42] | > 1250
O=Cc1ccc(-c2nc(NC(=O)c3ccc([N+](=O)[O-])s3)c3cnn(C4CCCCC4)c3n2)cc1 [Compound 10-27, N-(1-cyclohexyl-6-(4-formylphenyl)-1H-pyrazolo[3,4-d]pyrimidin-4-yl)-5-nitrothiophene-2-carboxamide] | 840
